These results are taken from US12252524B2, “GIP/GLP1 co-agonist compounds” (Eli Lilly and Company, priority 2018, dated 2025).

Usually EC50 stands for the concentration needed to bring the measured effect to its halfway point. Usually Ki stands for a dissociation constant, usually derived from enzyme kinetics or from competition with a known ligand.

Numbered stars: 1 amine (or outer) side, 2 acyl side, 3 side chain; on linkers, the order of the positions; unused ones are H or OH. Square brackets hold non-standard residues; d marks the D form. Side chains are listed from the residue outwards. Peptide text beside a SMILES is read from it. * marks the point of attachment. C20 diacid = O=C(O)CCCCCCCCCCCCCCCCCCC(=O)*; αMePhe(2-F) = C[C@](N)(Cc1ccccc1F)C(=O)O; γGlu = O=C(O)[C@H](CCC(=O)[*:2])N[*:1]; αMeL = CC(C)C[C@](C)(N)C(=O)O; αMeK = C[C@](N)(CCCCN)C(=O)O; Dab = NCC[C@H](N)C(=O)O; AEEA = NCCOCCOCC(=O)O; Aib = CC(C)(N)C(=O)O

For test [1], the target named is human GLP-1 receptor (GLP-1R) (Homo sapiens, UniProt P43220). The test can be described thus: cAMP pharmacological functional assay in presence of casein, hGLP-1R. The conditions noted are these: HEK293 cells expressing hGLP-1R, 0.1% Casein, geometric mean; read-out: hGLP1R cAMP Rel EC50 nM (SEM, n). It counts as cell-based.
The next test addresses T1, human Gcg receptor (Homo sapiens, UniProt P47871).
T1 construct: expressed in transfected cells; crude membranes
The test can be described thus: [125I]-Glucagon binding (SPA), human Gcg receptor. The conditions noted are these: read-out: hGLcgR Ki, nM (SEM, n). In short, it runs like this:
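Crude membranes from cells expressing the receptor, prepared by hypotonic lysis in 50 mM Tris HCl pH 7.5 with protease inhibitors, homogenization and differential centrifugation, were used in a WGA-bead SPA. Binding buffer: 25 mM HEPES pH 7.4, 2.5 mM CaCl2, 1 mM MgCl2, bacitracin, Tween-20.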

In a further test the target is human GLP-1R (Homo sapiens, UniProt P43220). The test can be described thus: [125I]-GLP-1 binding (SPA), human GLP-1 receptor. The arrangement: expressed in transfected cells; crude membranes. The conditions noted are these: read-out: hGLP1R Ki, (nM) (SEM, n). Put shortly: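 Ki values are geometric means with SEM over independent replicates on different days, derived from IC50s fitted by four-parameter nonlinear regression. The assay used crude cell membranes in HEPES buffer, pH 7.4, containing CaCl2, MgCl2, bacitracin and TWEEN-20.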

In test [2] the target is T2, gastric inhibitory peptide receptor (GIPR) (Homo sapiens, UniProt P48546).
T2 sequence (P48546 22-466): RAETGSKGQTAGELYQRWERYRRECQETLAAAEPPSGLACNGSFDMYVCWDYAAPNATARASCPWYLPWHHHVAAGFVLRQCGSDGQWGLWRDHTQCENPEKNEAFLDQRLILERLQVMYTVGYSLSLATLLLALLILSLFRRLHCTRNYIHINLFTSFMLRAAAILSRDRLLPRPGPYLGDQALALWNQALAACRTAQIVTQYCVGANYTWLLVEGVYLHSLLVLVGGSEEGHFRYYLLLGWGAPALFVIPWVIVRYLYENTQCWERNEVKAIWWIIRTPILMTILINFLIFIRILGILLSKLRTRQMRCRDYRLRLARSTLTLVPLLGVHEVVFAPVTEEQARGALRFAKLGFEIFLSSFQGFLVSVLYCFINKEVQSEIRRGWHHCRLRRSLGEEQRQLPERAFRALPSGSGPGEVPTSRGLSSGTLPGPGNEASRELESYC
The test can be described thus: cAMP pharmacological functional assay in presence of casein, hGIPR. The class given is cell-based. The conditions noted are these: HEK293 cells expressing hGIPR, 0.1% Casein, geometric mean; read-out: hGIPR cAMP Rel EC50 nM (SEM, n).

In another test the target is T3, human GIP receptor (Homo sapiens, UniProt P48546).
T3 construct: expressed in transfected cells; crude membranes
T3 sequence (P48546 22-466): T2 sequence (P48546 22-466)
The test can be described thus: [125I]-GIP binding (SPA), human GIP receptor. The conditions noted are these: read-out: hGIPR Ki, nM (SEM, n).

Sequence of human GLP-1 receptor (GLP-1R) (P43220 24-463): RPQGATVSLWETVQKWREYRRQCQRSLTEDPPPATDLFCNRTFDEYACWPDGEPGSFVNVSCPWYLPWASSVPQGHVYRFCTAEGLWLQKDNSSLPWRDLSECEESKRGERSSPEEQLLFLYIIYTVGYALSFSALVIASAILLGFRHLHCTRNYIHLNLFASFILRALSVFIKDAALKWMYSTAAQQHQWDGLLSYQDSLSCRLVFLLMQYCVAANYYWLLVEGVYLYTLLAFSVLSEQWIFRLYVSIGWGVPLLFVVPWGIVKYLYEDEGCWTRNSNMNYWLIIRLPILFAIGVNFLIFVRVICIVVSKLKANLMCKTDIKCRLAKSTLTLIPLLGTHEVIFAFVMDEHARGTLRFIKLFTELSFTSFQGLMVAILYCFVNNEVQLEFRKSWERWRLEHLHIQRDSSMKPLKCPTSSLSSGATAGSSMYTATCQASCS
Sequence of human GLP-1R (P43220 24-463): as above
T1 sequence (P47871 26-477): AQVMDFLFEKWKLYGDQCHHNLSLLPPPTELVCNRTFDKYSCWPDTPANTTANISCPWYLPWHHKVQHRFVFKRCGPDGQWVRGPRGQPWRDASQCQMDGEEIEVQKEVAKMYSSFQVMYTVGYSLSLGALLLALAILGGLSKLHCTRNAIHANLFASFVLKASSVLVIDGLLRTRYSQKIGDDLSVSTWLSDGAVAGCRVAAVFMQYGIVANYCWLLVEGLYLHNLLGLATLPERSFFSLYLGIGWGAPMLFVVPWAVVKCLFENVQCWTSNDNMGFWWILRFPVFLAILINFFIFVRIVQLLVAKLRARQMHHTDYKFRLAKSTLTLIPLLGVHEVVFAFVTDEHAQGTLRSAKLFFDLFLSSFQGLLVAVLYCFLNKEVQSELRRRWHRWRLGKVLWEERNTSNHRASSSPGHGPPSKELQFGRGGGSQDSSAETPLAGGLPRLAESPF

Consider `CC[C@H](C)[C@H](NC(=O)[C@H](CC(C)C)NC(=O)C(C)(Cc1ccc(O)cc1)NC(=O)[C@@H](CCC(=O)O)NC(=O)[C@@H](NC(=O)[C@H](Cc1ccccc1)NC(=O)[C@H](C)NC(=O)C(C)(C)NC(=O)[C@H](CCC(N)=O)NC(=O)[C@H](C)NC(=O)[C@H](CCCCNC(=O)COCCOCCNC(=O)COCCOCCNC(=O)[C@@H](N)CCCCNC(=O)CCCCCCCCCCCCCCCCCCC(=O)O)NC(=O)[C@H](CCCN)NC(=O)[C@H](CC(=O)O)NC(=O)[C@H](CC(C)C)NC(=O)C(C)(CC(C)C)NC(=O)[C@@H](NC(=O)[C@H](CO)NC(=O)[C@H](Cc1ccncc1)NC(=O)[C@H](CC(=O)O)NC(=O)[C@H](CO)NC(=O)[C@@H](NC(=O)C(C)(Cc1ccccc1F)NC(=O)[C@@H](NC(=O)CNC(=O)[C@H](CCC(=O)O)NC(=O)C(C)(C)NC(=O)[C@@H](N)Cc1ccc(O)cc1)[C@@H](C)O)[C@@H](C)O)[C@@H](C)CC)[C@@H](C)CC)C(=O)N[C@@H](C)C(=O)NCC(=O)NCC(=O)N1CCC[C@H]1C(=O)N[C@@H](CO)C(=O)N[C@@H](CO)C(=O)NCC(=O)N[C@@H](C)C(=O)N1CCC[C@H]1C(=O)N1CCC[C@H]1C(=O)N1CCC[C@H]1C(=O)N[C@@H](CO)C(N)=O` (stereo partly shown) [Example 252], for which the EC50 in test [1] was found to be 0.0483 nM; in test [2] it was 0.093 nM. For the same compound, the Ki on human Gcg receptor stood at 26 nM; at human GLP-1R it was 0.383 nM; at human GIP receptor it was 0.00971 nM.
On the same counts, the results for `CC[C@H](C)[C@H](NC(=O)[C@H](Cc1ccccc1)NC(=O)[C@H](C)NC(=O)[C@](C)(CCCCN)NC(=O)[C@H](CCC(N)=O)NC(=O)[C@H](C)NC(=O)[C@H](CCCCNC(=O)COCCOCCNC(=O)COCCOCCNC(=O)CC[C@H](NC(=O)CCCCCCCCCCCCCCCCCCC(=O)O)C(=O)O)NC(=O)[C@H](CCC(=O)O)NC(=O)[C@H](CC(=O)O)NC(=O)[C@H](CC(C)C)NC(=O)[C@](C)(CC(C)C)NC(=O)[C@@H](NC(=O)[C@H](CO)NC(=O)[C@H](Cc1ccc(O)cc1)NC(=O)[C@H](CC(=O)O)NC(=O)[C@H](CO)NC(=O)[C@@H](NC(=O)[C@H](Cc1ccccc1)NC(=O)[C@@H](NC(=O)CNC(=O)[C@H](CCC(=O)O)NC(=O)C(C)(C)NC(=O)[C@@H](N)Cc1ccc(O)cc1)[C@@H](C)O)[C@@H](C)O)[C@@H](C)CC)C(=O)N[C@@H](CCC(=O)O)C(=O)N[C@@H](Cc1ccc(O)cc1)C(=O)N[C@@H](CC(C)C)C(=O)N[C@@H](CC(C)C)C(=O)N[C@@H](CCC(=O)O)C(=O)NC(C)(C)C(=O)NCC(=O)N1CCC[C@H]1C(=O)N[C@@H](CO)C(=O)N[C@@H](CO)C(=O)NCC(=O)N[C@@H](C)C(=O)N1CCC[C@H]1C(=O)N1CCC[C@H]1C(=O)N1CCC[C@H]1C(=O)N[C@@H](CO)C(N)=O` [Example 22] (H-Y[Aib]EGTFTSDYSI[αMeL]LDEK([AEEA-AEEA-γGlu-C20 diacid])AQ[αMeK]AFIEYLLE[Aib]GPSSGAPPPS-NH2; N-terminus assumed) are 0.206 nM, 0.0842 nM, 53.4 nM, 23.1 nM and 0.624 nM.
`CC[C@H](C)[C@H](NC(=O)[C@H](CCCCN)NC(=O)[C@H](CC(=O)O)NC(=O)[C@H](CC(C)C)NC(=O)[C@H](CC(C)C)NC(=O)[C@@H](NC(=O)[C@H](CO)NC(=O)[C@H](Cc1ccc(O)cc1)NC(=O)[C@H](CC(=O)O)NC(=O)[C@H](CO)NC(=O)[C@@H](NC(=O)[C@H](Cc1ccccc1)NC(=O)[C@@H](NC(=O)CNC(=O)[C@H](CCC(=O)O)NC(=O)C(C)(C)NC(=O)[C@@H](N)Cc1ccc(O)cc1)[C@@H](C)O)[C@@H](C)O)[C@@H](C)CC)C(=O)N[C@@H](C)C(=O)N[C@@H](CCC(N)=O)C(=O)NC(C)(C)C(=O)N[C@@H](CCCCNC(=O)COCCOCCNC(=O)COCCOCCNC(=O)CC[C@H](NC(=O)CCCCCCCCCCCCCCCCCCC(=O)O)C(=O)O)C(=O)N[C@@H](Cc1ccccc1)C(=O)N[C@H](C(=O)N[C@@H](CCC(=O)O)C(=O)N[C@@H](Cc1ccc(O)cc1)C(=O)N[C@@H](CC(C)C)C(=O)N[C@H](C(=O)N[C@@H](CCC(=O)O)C(=O)NCC(=O)NCC(=O)N1CCC[C@H]1C(=O)N[C@@H](CO)C(=O)N[C@@H](CO)C(=O)NCC(=O)N[C@@H](C)C(=O)N1CCC[C@H]1C(=O)N1CCC[C@H]1C(=O)N1CCC[C@H]1C(=O)N[C@@H](CO)C(N)=O)[C@@H](C)CC)[C@@H](C)CC` [Example 32] (H-Y[Aib]EGTFTSDYSILLDKIAQ[Aib]K([AEEA-AEEA-γGlu-C20 diacid])FIEYLIEGGPSSGAPPPS-NH2): the 50% effective concentration (EC50) in test [1] came to 0.498 nM; in test [2], 0.179 nM. The results for the Ki at human Gcg receptor, at human GLP-1R and on human GIP receptor were 44.7 nM, 3.96 nM and 0.0205 nM, respectively.
On the same counts, the results for `CC[C@H](C)[C@H](NC(=O)[C@H](CC(C)C)NC(=O)[C@H](Cc1ccc(O)cc1)NC(=O)[C@@H](CCC(=O)O)NC(=O)[C@@H](NC(=O)[C@H](Cc1ccccc1)NC(=O)[C@H](CCC(=O)O)NC(=O)C(C)(C)NC(=O)[C@H](CCC(N)=O)NC(=O)[C@H](C)NC(=O)[C@H](CCCCNC(=O)COCCOCCNC(=O)COCCOCCNC(=O)CC[C@H](NC(=O)CCCCCCCCCCCCCCCCCCC(=O)O)C(=O)O)NC(=O)[C@H](CCN)NC(=O)[C@H](CC(=O)O)NC(=O)[C@H](CC(C)C)NC(=O)[C@](C)(CC(C)C)NC(=O)[C@@H](NC(=O)[C@H](CO)NC(=O)[C@H](Cc1ccc(O)cc1)NC(=O)[C@H](CC(=O)O)NC(=O)[C@H](CO)NC(=O)[C@@H](NC(=O)[C@](C)(Cc1ccccc1F)NC(=O)[C@@H](NC(=O)CNC(=O)[C@H](CCC(=O)O)NC(=O)C(C)(C)NC(=O)[C@@H](N)Cc1ccc(O)cc1)[C@@H](C)O)[C@@H](C)O)[C@@H](C)CC)[C@@H](C)CC)C(=O)N[C@@H](CCC(=O)O)C(=O)NCC(=O)NCC(=O)N1CCC[C@H]1C(=O)N[C@@H](CO)C(=O)N[C@@H](CO)C(=O)NCC(=O)N[C@@H](C)C(=O)N1CCC[C@H]1C(=O)N1CCC[C@H]1C(=O)N1CCC[C@H]1C(=O)N[C@@H](CO)C(N)=O` [Example 217] (H-Y[Aib]EGT[αMePhe(2-F)]TSDYSI[αMeL]LD[Dab]K([AEEA-AEEA-γGlu-C20 diacid])AQ[Aib]EFI[dE]YLIEGGPSSGAPPPS-NH2) are 0.0383 nM, 0.0563 nM, 516 nM, 2.02 nM and 0.0376 nM.
Taken in the same sequence, the figures for `CC[C@H](C)[C@H](NC(=O)[C@H](Cc1ccccc1)NC(=O)[C@H](C)NC(=O)C(C)(C)NC(=O)[C@H](CCC(N)=O)NC(=O)[C@H](C)NC(=O)[C@H](CCCCNC(=O)COCCOCCNC(=O)COCCOCCNC(=O)CC[C@H](NC(=O)CCCCCCCCCCCCCCCCCCC(=O)O)C(=O)O)NC(=O)[C@H](CCCCN)NC(=O)[C@H](CC(=O)O)NC(=O)[C@H](CC(C)C)NC(=O)[C@H](CC(C)C)NC(=O)[C@@H](NC(=O)[C@H](CO)NC(=O)[C@H](Cc1ccc(O)cc1)NC(=O)[C@H](CC(=O)O)NC(=O)[C@H](CO)NC(=O)[C@@H](NC(=O)[C@H](Cc1ccccc1)NC(=O)[C@@H](NC(=O)CNC(=O)[C@H](CCC(=O)O)NC(=O)C(C)(C)NC(=O)[C@@H](N)Cc1ccc(O)cc1)[C@@H](C)O)[C@@H](C)O)[C@@H](C)CC)C(=O)N[C@@H](CCC(=O)O)C(=O)N[C@@H](Cc1ccc(O)cc1)C(=O)N[C@@H](CC(C)C)C(=O)N[C@H](C(=O)N[C@H](CCC(=O)O)C(=O)NCC(=O)NCC(=O)N1CCC[C@H]1C(=O)N[C@@H](CO)C(=O)N[C@@H](CO)C(=O)NCC(=O)N[C@@H](C)C(=O)N1CCC[C@H]1C(=O)N1CCC[C@H]1C(=O)N1CCC[C@H]1C(=O)N[C@@H](CO)C(N)=O)[C@@H](C)CC` [Example 83] were 0.387 nM, 0.182 nM, 320 nM, 7.1 nM and 0.142 nM.
